{"source": "patent US5229265A", "about": "“Process for analyzing clastogenic agents” (Litron Laboratories, priority 1990, dated 1993)", "tested_on": "polychromatic cells (PCEs)", "experiment": "PCE count in blood by flow cytometry", "type": "in vivo, mouse", "settings": "mice dosed with DMBA", "method": "When two dyes are used for simultaneous micronucleus and PCE discrimination, the cell suspension is prepared as follows: The Hoechst 33258 working solution described above is prepared and is filtered through an 0.2 micron Acro-disk (Gilman Sciences). In addition, a propidium iodide (PI) working solution is prepared (5 mg PI/100 ml phosphate buffered saline (PBS)). A buffer-dye solution is then prepared by adding the PI solution (100 μl) and Hoechst 33258 working solution (25 μl) to PBS (867.5 μl). The resulting buffer-dye solution is then dispensed (992.5 μl) into samples tubes. A sample of fixed blood (15 μl) is then added to the corresponding tube. When blood from a malaria (P. berghei) infected mouse was fixed and stained by this procedure, the bivariate pattern shown in FIG. 1B resulted, in which a stronger red fluorescence signal was obtained. In this case, good resolution is achieved if BSA is omitted from the stained cell suspension. The pH of the stained solution is important for good fluorescence emission profiles and resolution of the different cell populations. With Hoechst 33258 and propidium iodide, good results can be obtained in the range from pH 6 to pH 8. Lower or higher pH levels cause a broadening of the fluorescence patterns which adversely affect the resolution of the PCes and micronucleated cells. Operationally,it is advisable to store the fixed samples and analyze freshly stained samples.\nAlthough it is inappropriate to directly compare the number of MNs in the 0 hr and 96 hr samples because of this PCE change, it is possible to normalize the data to take into account said change. An increase in the number of PCEs will cause a decrease in the total number of MNs counted in the PCE window for a 96 hour sample. […]\nAnother staining embodiment of this invention involves the use of dual parameter data acquisition in conjunction with two dyes, Hoechst 33258 and propidium iodide so as to analyze both MNs and PCEs. […] Propidium iodide endows the PCEs with a strong red fluorescence signal which pulls them out of the RBC contour. […]", "data": [{"molecule": "Cc1c2ccccc2c(C)c2c1ccc1ccccc12", "note": "[DMBA, dimethyl benzathracene]", "values": [{"measurement": "production of PCEs", "result": "production of PCEs is suppressed"}]}]}
